This note sets out measurements from patent US3989466.

Data set [1] can be described thus: not told for nicotinamide; caffeine D in same system by direct partitioning in a separatory funnel with UV absorbance.

Turning to `NC(=O)c1cccnc1`, the “partition coefficient (concentration ratio)” value in data set [1] is on record as 0.19 concentration ratio (mg/ml per mg/ml).
For the compound `Oc1ccc(N=Nc2ccccc2)cc1`, the “partition coefficient (concentration ratio)” value in the data set “not told” is listed as “ca. 0.50 concentration ratio (mg/ml per mg/ml)”.
For `CC1(C)Nc2cccc3c(N=Nc4ccc(N=Nc5ccccc5)c5ccccc45)ccc(c23)N1`, the “partition coefficient (concentration ratio)” value in the data set “not told” is “ca. 2.0 concentration ratio (mg/ml per mg/ml)”.
